Results on three molecules are retold here after ChEMBL document CHEMBL3227983, “N-Acetimidoyl- and N-formimidoylthienamycin derivatives: antipseudomonal beta-lactam antibiotics” (J Med Chem, 1979).

Bounds are passed on as bounds.

Series [1] deals with Pseudomonas aeruginosa. In words: Antibacterial activity against penicillin-resistant Pseudomonas aeruginosa MB3350 at 25 ug/disk. The class given is functional. The conditions noted are these: read-out: DIZ.
Series [2] has as its system Enterobacter cloacae. In words: Antibacterial activity against penicillin-resistant Enterobacter cloacae MB2646 at 25 ug/disk. The class given is functional. Particulars: read-out: DIZ.
The test system of series [3] is Enterobacter cloacae. The experiment in a line: Antibacterial activity against penicillin-sensitive Enterobacter cloacae MB2647 at 25 ug/disk. The class given is functional. Particulars: read-out: DIZ.
A short description of series [4]: Drug degradation in crystalline form at 10 mg/ml. Format: physicochemical. Particulars: read-out: Drug degradation.
A short description of series [5]: Stability of the compound in amorphous form in deionized water assessed as time at which 90% of initial UV-absorbance remains at 60 mg/ml at 23 degC. Format: physicochemical. The conditions noted are these: buffer.
For series [6], the system named is Staphylococcus aureus. The experiment in a line: Antibacterial activity against penicillin-resistant Staphylococcus aureus MB2314 at 25 ug/disk. Particulars: read-out: DIZ. The class given is functional.
Series [7] can be described thus: Stability of the compound in amorphous form assessed as compound remaining after 5 months at 60 mg/ml at 23 degC in presence of 0.1 equiv of NaHCO3. Format: physicochemical. The conditions noted are these: read-out: Stability.
For series [8], the system named is Staphylococcus aureus. The experiment in a line: Antibacterial activity against penicillin-sensitive Staphylococcus aureus MB2985 at 25 ug/disk. The class given is functional. The conditions noted are these: read-out: DIZ.
A short description of series [9]: Stability of the compound in amorphous form in 1 M PO4 assessed as time at which 90% of initial UV-absorbance remains at 60 mg/ml at pH 7 at 23 degC. The class given is physicochemical. Particulars: buffer.
The test system of series [10] is Escherichia coli. In words: Antibacterial activity against penicillin-resistant Escherichia coli MB2964 at 25 ug/disk. The class given is functional. The conditions noted are these: read-out: DIZ.
In series [11] the test system is Pseudomonas aeruginosa. In words: Antibacterial activity against penicillin-sensitive Pseudomonas aeruginosa MB2835 at 25 ug/disk. Format: functional. Particulars: read-out: DIZ.
The test system of series [12] is Escherichia coli. In words: Antibacterial activity against penicillin-sensitive Escherichia coli MB2482 at 25 ug/disk. The class given is functional. The conditions noted are these: read-out: DIZ.
Series [13] is described as follows: Stability of the compound in amorphous form assessed as compound remaining after 6 months at 60 mg/ml at 23 degC in presence of 0.1 equiv of NaHCO3. The class given is physicochemical. Particulars: read-out: Stability.
The nature of series [14]: Stability of the compound in crystalline form in deionized water assessed as time at which 90% of initial UV-absorbance remains at 10 mg/ml at 23 degC. The class given is physicochemical. Particulars: buffer.
Series [15] can be described thus: Stability of the compound in crystalline form assessed as compound remaining after 6 months at 10 mg/ml at 23 degC in presence of 0.1 equiv of NaHCO3. Format: physicochemical. Particulars: read-out: Stability.
Series [16] in a line: Stability of the compound in amorphous form assessed as compound remaining after 1 month at 60 mg/ml at 23 degC in presence of 0.1 equiv of NaHCO3. Particulars: read-out: Stability. Format: physicochemical.

On to `CC(=N)NCCSC1=C(C(=O)O)N2C(=O)[C@H]([C@@H](C)O)[C@H]2C1`, for which the zone of inhibition at 25 µg/disc in the series on Pseudomonas aeruginosa [1] came out at 28 mm; in the series on Enterobacter cloacae [2], 27 mm; with Enterobacter cloacae [3] it was 27 mm; in the series on Staphylococcus aureus [6] it was 40 mm; with Staphylococcus aureus [8], 38.5 mm; in the series with Escherichia coli [10], 29.5 mm. Moreover, the zone of inhibition at 25 µg/disc in the series on Pseudomonas aeruginosa [11] and in the series on Escherichia coli [12] was 28 mm throughout. In series [4], the degraded at 10 mg/ml was below 1%. Further, the figures for the Time in series [5] and in series [9] were 5 h and 0.5 h, respectively. Moreover, in [7], the remaining at 3652.5 h, 60 mg/ml was 100%.
On to `C[C@@H](O)[C@H]1C(=O)N2C(C(=O)O)=C(SCCN=CN)C[C@H]12` [IMIPENEM ANHYDROUS], for which the zone of inhibition at 25 µg/disc with Pseudomonas aeruginosa [1] came to 29 mm; in the series with Enterobacter cloacae [2], 27.5 mm; in the series on Enterobacter cloacae [3] it was 27 mm; with Staphylococcus aureus [6] it was 40.5 mm; in the series with Staphylococcus aureus [8], 40 mm; in the series on Escherichia coli [10], 29.5 mm. Besides, the zone of inhibition at 25 µg/disc in the series with Pseudomonas aeruginosa [11] was determined as 29 mm; in the series on Escherichia coli [12] it was 28.5 mm. In addition, the Time in series [5] came out at 2.5 h; in series [14], 17 h; in series [9], 0.5 h. For the same molecule, the remaining at 4383 h, 60 mg/ml in [13] is 80%. Besides, the remaining at 4383 h, 10 mg/ml in series [15] turned out to be 100%.
As for `C[C@@H](O)[C@H]1C(=O)N2C(C(=O)O)=C(SCCN)C[C@H]12` [THIENAMYCIN], the zone of inhibition at 25 µg/disc was 26 mm with Pseudomonas aeruginosa [1]; 27 mm in the series with Enterobacter cloacae [2]; 25.5 mm with Enterobacter cloacae [3]; 41 mm in the series with Staphylococcus aureus [6]; 40 mm in the series on Staphylococcus aureus [8]; 29 mm in the series with Escherichia coli [10]. Besides, the zone of inhibition at 25 µg/disc in the series with Pseudomonas aeruginosa [11] was determined as 26 mm; with Escherichia coli [12], 28.5 mm. In addition, the Time in series [5] and in series [9] was 0.5 h in each case. Moreover, in [16], the remaining at 730.5 h, 60 mg/ml was found to be 80%.
